Data as given in patent publication US10329256B2, “(Hetero)aryl cyclopropylamine compounds as LSD1 inhibitors” (Oryzon Genomics, S.A., priority 2011, dated 2019).
Structures can show the parent of a compound that is named as a salt.

Test system: THP-1 cells
Test: cells
Type: cell-based
Settings: Homo sapiens, THP-1, 96 h
Procedure: By analyzing the induction of CD11b membrane expression on THP-1 cells we are assessing the ability of LSD1 inhibitors to induce terminal monocytic differentiation of a MLL-AF9 AML cell line.
They carry t(9; 11)(p21; q23) leading to MLL-MLLT3 (MLL-AF9) fusion gene. This cell line can undergo monocytic differentiation upon treatment with the appropriate stimulus.
In this assay, 150,000 THP-1 cells were seeded in 1 ml of complete culture medium in 6-well tissue culture plates. Serial dilutions of the compounds were prepared in DMSO and then further diluted in complete medium to generate solutions of concentrations that are double of the final concentration at which the cells will be exposed. 1 ml of these 2× concentrated solutions was added to the cells.
Cells were kept in the presence of compounds for 96 h at a 5% CO2 atmosphere at 37° C. After this treatment period, cells were harvested, washed twice with PBS buffer and placed in a V-bottom 96-well plate. Each treated sample was split in two.
Percentage of CD11b positive cells, as an indicator of monocytic differentiation, was determined compared to isotype control antibody stained cells. EC50 values were calculated by non-linear regression analysis.

Compound | EC50 [nM]
c1ccc([C@H]2C[C@@H]2NC2CCNCC2)cc1 (racemic) [Example 1, N-((trans)-2-phenylcyclopropyl)piperidin-4-amine hydrochloride] | 2.1
c1ccc([C@@H]2C[C@H]2NC2CCNCC2)cc1 [Example 3, N-((1R,2S)-2-phenylcyclopropyl)piperidin-4-amine hydrochloride] | 0.8
